{"source": "patent US7186743B2", "about": "“Substituted pyrazolyl compounds for the treatment of inflammation” (Pharmacia Corporation, priority 2001, dated 2007)", "target": "T1, IKK2 (Homo sapiens, UniProt O14920)", "T1 construct": "made in house; host or cells: insect cells (baculovirus, pFastBac; SF9)", "T1 sequence (O14920 1-756)": "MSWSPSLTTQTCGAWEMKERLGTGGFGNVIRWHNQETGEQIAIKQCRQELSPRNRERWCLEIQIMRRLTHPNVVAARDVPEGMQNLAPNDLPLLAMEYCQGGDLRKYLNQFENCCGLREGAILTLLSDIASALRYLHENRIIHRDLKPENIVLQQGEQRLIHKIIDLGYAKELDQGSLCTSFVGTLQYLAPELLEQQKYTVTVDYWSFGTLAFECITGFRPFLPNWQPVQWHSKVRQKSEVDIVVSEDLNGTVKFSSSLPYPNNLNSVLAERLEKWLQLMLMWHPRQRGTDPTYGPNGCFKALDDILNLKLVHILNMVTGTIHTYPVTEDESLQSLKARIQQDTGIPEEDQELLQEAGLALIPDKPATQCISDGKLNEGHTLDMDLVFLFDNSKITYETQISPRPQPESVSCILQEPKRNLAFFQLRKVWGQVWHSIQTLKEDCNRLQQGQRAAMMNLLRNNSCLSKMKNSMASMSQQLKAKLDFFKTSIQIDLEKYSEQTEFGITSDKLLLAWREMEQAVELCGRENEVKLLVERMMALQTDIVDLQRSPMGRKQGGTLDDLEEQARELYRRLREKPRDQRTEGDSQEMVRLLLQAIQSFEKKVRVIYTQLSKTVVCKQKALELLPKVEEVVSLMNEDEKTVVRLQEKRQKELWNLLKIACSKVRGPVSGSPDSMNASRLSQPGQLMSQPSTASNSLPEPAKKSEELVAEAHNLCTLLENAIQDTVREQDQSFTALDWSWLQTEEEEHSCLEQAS", "assay": "IKKβ Resin Enzyme Assay (IKK2 resin)", "assay_type": "biochemical", "from_the_text": "cDNAs of human IKK1 and IKK2 were amplified by reverse transcriptase-polymerase chain reaction from human placental RNA (Clonetech). hIKK1 was subcloned into pFastBac HTa (Life Technologies) and expressed as N-terminal His6-tagged fusion protein. The hIKK2 cDNA was amplified using a reverse oligonucleotide primer which incorporated the peptide sequence for a FLAG-epitope tag at the C-terminus of the IKK2 coding region ([…]). The hIKK2:FLAG cDNA was subcloned into the baculovirus vector pFastBac. The rhIKK2 ([…]) mutant was constructed in the same vector used for wild type rhIKK2 using a QuikChange™ mutagenesis kit (Stratagene). Viral stocks of each construct were used to infect insect cells grown in 40 L suspension culture. […] Cell lysates were stored at −80° C. until purification of the recombinant proteins was undertaken as described below.\nA 10-liter culture of baculovirus-expressing IKK2 tagged with FLAG peptide was centrifuged and the cell pellet (MOI=0.1 and I=72 hrs) was re-suspended in buffer A. These cells were microfluidized, and centrifuged at 100,000×g for 45 min. Supernatant was passed over a G-25 column equilibrated with Buffer A. Protein peak was collected and incubated with anti-FLAG affinity resin on a rotator overnight in buffer B. The resin was washed in batch with 10–15 bed volumes of buffer C. Washed resin was poured into a column and rhIKK2 homodimer was eluted using 5 bed volumes of buffer B containing FLAG peptide. 5 mM DTT, 0.1% NP-40 and BSA (concentrated to 0.1% in final amount) was added to the eluted enzyme before concentrating in using an Amicon membrane with a molecular weight cut-off of 30 kDa. Enzyme was aliquoted and stored at −80° C.\nIKKβ kinase activity was measured using a biotinylated IκBα peptide ([…]32-Gly-Leu-Asp-Ser36-Met-Lys-Asp-Glu-Glu) (American Peptide Co.). […] ATP (Amersham) (about 1×10^5 cpm), 1 μM ATP (Sigma), 1 mM DTT (Sigma), 2 mM MgCl2 (Sigma), 2 mM MnCl2 (Sigma), 10 mM NaF (Sigma), 25 mM Hepes (Sigma) buffer, pH 7.6 and 20 μl enzyme solution and 10 ul inhibitor in a final volume of 50 μl. After incubation at 25° C. for 30 min, 150 μl resin (Dowex anion-exchange resin AG1X8 200–400 mesh) in 900 mM formate, pH 3.0 was added to each well to stop the reaction. Resin was allowed to settle for one hour and 50 ul of supernatant was removed to a Micolite-2 flat bottom plate (Dynex). 150 μl of scintillation fluid (Microscint 40) (Packard) was added to each well. Incorporation of [γ-^33P] ATP was measured using a Top-Count NXT (Packard).", "key": {"[1]": {"conditions": "Table 2, read-out: IKK Resin IC50"}, "[2]": {"conditions": "Table 8, read-out: IKK2 Resin IC50"}}, "note": "Where two headings read alike, the source gives them in different places."}
{"molecule": "CS(=O)(=O)c1ccc(-n2nc(C(N)=O)c3c2-c2cc(NC(=O)c4cc(F)ccc4[N+](=O)[O-])ccc2CC3)cc1", "note": "[Example 151, 8-[(5-fluoro-2-nitrobenzoyl)amino]-1-[4-(methylsulfonyl)phenyl]-4,5-dihydro-1H-benzo[g]indazole-3-carboxamide]", "values": [{"measurement": "IC50", "setting": "Table 3, read-out: IKK Resin IC50", "result": "≤ 1000", "unit": "nM"}]}
{"molecule": "NC(=O)c1nn(-c2ccc(F)cc2)c2c1CCc1ccc(NC(=O)c3ccc(N)cc3Cl)cc1-2", "note": "[Example 232, 8-[(4-amino-2-chlorobenzoyl)amino]-1-(4-fluorophenyl)-4,5-dihydro-1H-benzo[g]indazole-3-carboxamide]", "values": [{"measurement": "IC50", "setting": "Table 6, read-out: IKK2 Resin IC 50", "result": "≤ 1000", "unit": "nM"}]}
{"molecule": "CN1CCN(c2ccc(Cl)c(C(=O)Nc3ccc4c(c3)-c3c(c(C(N)=O)nn3-c3ccc(F)cc3)CC4)c2)CC1", "note": "[Example 258, 8-{[2-chloro-5-(4-methylpiperazin-1-yI)benzoyl]amino}-1-(4-fluorophenyl)-4,5-dihydro-1H-benzo[g]indazole-3-carboxamide]", "values": [{"measurement": "IC50", "setting": "Table 7, read-out: IKK2 Resin IC50", "result": "≤ 1000", "unit": "nM"}]}
{"molecule": "NC(=O)c1nn(-c2ccc(C#CCCCO)cc2)c2c1CCc1ccc(NC(=O)c3cccnc3Cl)cc1-2", "note": "[Example 387, 8-{[(2-chloropyridin-3-yl)carbonyl]amino}-1-[4-(5-hydroxypent-1-ynyl)phenyl]-4,5-dihydro-1H-benzo[g]indazole-3-carboxamide]", "values": [{"measurement": "IC50", "setting": "Table 17, read-out: IKK2 Resin IC50", "result": "≤ 1000", "unit": "nM"}]}
{"molecule": "NC(=O)c1nn(-c2ccc(/C=C/C(=O)NCc3ccco3)cc2)c2c1CCc1ccc(NC(=O)c3ccccc3Cl)cc1-2", "note": "[Example 310, 8-[(2-chlorobenzoyl)amino]-1-(4-{(1E)-3-[(2-furylmethyl)amino]-3-oxoprop-1-enyl}phenyl)-4,5-dihydro-1H-benzo[g]indazole-3-carboxamide]", "values": [{"measurement": "IC50", "setting": "Table 12, read-out: IKK2 Resin IC50", "result": "≤ 1000", "unit": "nM"}]}
{"molecule": "NC(=O)c1nn(-c2cccs2)c2c1CCc1ccc(NC(=O)c3ccncc3Cl)cc1-2", "note": "[Example 382, 8-[(3-chloroisonicotinoyl)amino]-1-thien-2-yl-4,5-dihydro-1H-benzo[g]indazole-3-carboxamide]", "values": [{"measurement": "IC50", "setting": "Table for Examples 381-385 (headed TABLE 14), read-out: IKK2 Resin IC50", "result": "≤ 1000", "unit": "nM"}]}
{"molecule": "CS(=O)(=O)/C=C/c1ccc(-n2nc(C(N)=O)c3c2-c2cc(NC(=O)c4ccccc4Cl)ccc2CC3)cc1", "note": "[Example 297, 8-[(2-chlorobenzoyl)amino]-1-{4-[(E)-2-(methylsulfonyl)ethenyl]phenyl}-4,5-dihydro-1H-benzo[g]indazole-3-carboxamide]", "values": [{"measurement": "IC50", "setting": "Table 11, read-out: IKK2 Resin IC50", "result": "≤ 1000", "unit": "nM"}]}
{"molecule": "CS(=O)(=O)c1ccc(-n2nc(C(N)=O)c3c2-c2cc(NC(=O)c4cccc(N)c4Cl)ccc2CC3)cc1", "note": "[Example 116, 8-[(3-amino-2-chlorobenzoyl)amino]-1-[4-(methylsulfonyl)phenyl]-4,5-dihydro-1H-benzo[g]indazole-3-carboxamide]", "values": [{"measurement": "IC50", "setting": "[1]", "result": "≤ 1000", "unit": "nM"}]}
{"molecule": "NC(=O)c1nn(-c2cccc(O)c2)c2c1CCc1ccc(NC(=O)c3ccccc3Cl)cc1-2", "note": "[Example 262, 8-[(2-chlorobenzoyl)amino]-1-(3-hydroxyphenyl)-4,5-dihydro-1H-benzo[g]indazole-3-carboxamide]", "values": [{"measurement": "IC50", "setting": "[2]", "result": "≤ 1000", "unit": "nM"}]}
{"molecule": "NC(=O)c1nn(-c2ccc(OCc3ccccc3)cc2)c2c1CCc1ccc(NC(=O)c3ccccc3Cl)cc1-2", "note": "[Example 259, 1-[4-(benzyloxy)phenyl]-8-[(2-chlorobenzoyl)amino]-4,5-dihydro-1H-benzo[g]indazole-3-carboxamide]", "values": [{"measurement": "IC50", "setting": "[2]", "result": "> 10000", "unit": "nM"}]}
{"molecule": "CS(=O)(=O)c1ccc(-n2nc(C(N)=O)c3c2-c2cc(NC(=O)c4ccccc4C(F)(F)F)ccc2CC3)cc1", "note": "[Example 93, 1-[4-(methylsulfonyl)phenyl]-8-{[2-(trifluoromethyl)benzoyl]amino}-4,5-dihydro-1H-benzo[g]indazole-3-carboxamide]", "values": [{"measurement": "IC50", "setting": "[1]", "result": "≤ 1000", "unit": "nM"}]}
{"molecule": "CS(=O)(=O)c1ccc(-n2nc(C(N)=O)c3c2-c2cc(NC(=O)c4ccccc4[N+](=O)[O-])ccc2CC3)cc1", "note": "[Example 102, 1-[4-(methylsulfonyl)phenyl]-8-[(2-nitrobenzoyl)amino]-4,5-dihydro-1H-benzo[g]indazole-3-carboxamide]", "values": [{"measurement": "IC50", "setting": "[1]", "result": "≤ 1000", "unit": "nM"}]}
{"molecule": "CS(=O)(=O)c1ccc(-n2nc(C(N)=O)c3c2-c2cc(NC(=O)c4ccc(N=[N+]=[N-])cc4)ccc2CC3)cc1", "note": "[Example 122, 8-[(4-azidobenzoyl)amino]-1-[4-(methylsulfonyl)phenyl]-4,5-dihydro-1H-benzo[g]indazole-3-carboxamide]", "values": [{"measurement": "IC50", "setting": "[1]", "result": "≤ 1000", "unit": "nM"}]}
